Reference: patent US8846914B2, “Compositions to effect neuronal growth” (Neuralstem, Inc., priority 2003, dated 2014)

Tests used:
[1] = system: human hippocampal stem cells differentiated for a period of 3-4 weeks; assay: 2° Assay Cell#/Apop (secondary neuroprotection/apoptosis assay); assay type: cell-based
Description: Other potential AD therapeutics progressing in clinical trials, target neurodegeneration in the hopes of reducing the neuronal loss and cognitive decline. Apoptotic death involving caspase pathways and DNA fragmentation has been measured in in vitro and animal models of AD and in Alzheimer's diseased brain tissue. The extent of apoptosis leading to neuronal loss is of continual debate with most agreeing it has some effect, but that other neuronal death pathways definitely play a role (see Behl, 2000; Broe et al., 2001, Roth, 2001). […]
A number of neurogenic agents inhibit neuronal loss, caspase-3 activity and/or nuclear fragmentation compared to staurosporine vehicle control. These NSI small molecule agents are all effective at in vitro neurogenesis as determined by methods described. […] Instrumentation such as a Molecular Devices fluorescent plate reader or a […] Array Scan II instrument and the like may be used to measure the degeneration and apoptosis.
Another assay used to determine the ability of a compound to provide neuroprotection is an apoptosis assay. Apoptosis is measured using the activity of an early matter of the programmed cell death pathway, caspase-3. […] Caspase-3 activity is expressed as μM of cleaved substrate per hour. […]

[2] = system: human hippocampal stem cells; assay: Neuronal identification of mitotic cells (BrdU / TuJ1 co-staining); assay type: cell-based; conditions: BrdU during last forty-eight hours of two-week treatment; FIG. 13
Description: FIG. 13 is a bar graph illustrating an example of neuronal identification of the mitotic cells in response to the compound treatment. Mitotic cells were labeled with BrdU during the last forty-eight hours of the two-week treatment with the test compounds. BrdU alone and BrdU together with TuJ1 as co-stained cells were quantified. Results from NSI-106 and LIF treatment are shown as an example. […] The bars represent the mean±SD from each of six wells.
In FIG. 13, mitotic cells are labeled with BrdU during the last forty-eight hours of a two-week treatment with the test compounds. BrdU alone and BrdU together with TuJ1 as co-stained cells are quantified.
As described in pending U.S. patent application Ser. No. 10/728,652, leukemia inhibitory factor (LIF), a cytokine growth factor, was selected from among several known neurotrophic factors as a positive control against which tested compounds can be compared. […] This effect is both consistent with the neural stem cell system in which the cells respond appropriately to the positive control by enhanced differentiation and/or mitosis, and achieves the objective of the assay method in which such cellular responses can be measured reproducibly and quantifiably.
Results from NSI-106 and the positive control, LIF treatment are shown as an example. […] The bars represent the mean±SD from each of six wells.

SMILES | 2° Assay Apop [1] | 2° Assay Cell# [1] | BrdU and TuJ1 co-stained mitotic cells [2]
O=C(NCc1nc2ccccn2c1NCC1CCCO1)Oc1ccccc1 (stereo not drawn) [NSI-182] | 100 ± 27 | 78 ± 34/ | –
CCCCNc1c(C2CCN(C(=O)CN(CC(C)C)S(C)(=O)=O)CC2)nc2cnccn12 [NSI-106] | – | – | produces mostly co-stained cells
